Experiments:
PRMT5 [1] = molecular target: T1, PRMT5 (Homo sapiens, UniProt O14744); assay: PRMT5 biochemical IC50 assay with SAM as cofactor; conditions: PRMT5, SAM as cofactor; read-out: SAM IC50
T1 construct: purchased Viva (custom protein)

PRMT5 [2] = molecular target: T1, PRMT5; assay: PRMT5 biochemical IC50 assay with no cofactor; conditions: PRMT5, no cofactor; read-out: No Cofactor/rel IC50
Source text: Table 1 indicates IC50 values (μM) against PRMT5 for exemplary compounds in the presence of SAM as cofactor, with no cofactor, and with MTA as cofactor, respectively (columns 4-6). […] Ki values can be calculated from the IC50 values as described in the Examples section. As detailed in the Examples section, for the assay performed in the presence of SAM, IC50=Ki×1.5 (Ki=IC50/1.5).

PRMT5 [3] = molecular target: T1, PRMT5; assay: PRMT5 biochemical IC50 assay with MTA as cofactor; conditions: PRMT5, MTA as cofactor; read-out: MTA IC50
[4] = test system: HAP1 MTAP-intact cell line; assay: SDMA in-cell western assay, HAP1 MTAP-intact; assay type: cell-based; conditions: Homo sapiens, HAP1, SDMA in-cell western, HAP1 MTAP-intact; read-out: MTAP HAP1 intact IC50
In short: (§1)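 IC50 values come from SDMA signal quantified by in-cell western in two HAP1 lines, one with native MTAP levels and one lacking MTAP.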

[5] = test system: HAP1 MTAP-deleted cell line; assay: SDMA in-cell western assay, HAP1 MTAP-deleted; assay type: cell-based; conditions: for IC50: Homo sapiens, HAP1, SDMA in-cell western, HAP1 MTAP-deleted, read-out: HAP1 MTAP deleted IC50; for MTAP intact/deleted ratio: IC50 ratio HAP1 MTAP-intact / HAP1 MTAP-deleted, SDMA in-cell western
In short: as §1

[6] = test system: HAP1 MTAP-deleted cell line; assay: Viability assay, MTAP-deleted cell line; assay type: cell-based; conditions: Homo sapiens, HAP1, viability assay, HAP1 MTAP-deleted; read-out: HAP1 MTAP deleted viability
Source text: Table 1 additionally indicates IC50 values in a viability assay for the MTAP-deleted cell line (column 10), indicating the effect of treatment with compound on cell survival.

T1 sequence (O14744 whole entry): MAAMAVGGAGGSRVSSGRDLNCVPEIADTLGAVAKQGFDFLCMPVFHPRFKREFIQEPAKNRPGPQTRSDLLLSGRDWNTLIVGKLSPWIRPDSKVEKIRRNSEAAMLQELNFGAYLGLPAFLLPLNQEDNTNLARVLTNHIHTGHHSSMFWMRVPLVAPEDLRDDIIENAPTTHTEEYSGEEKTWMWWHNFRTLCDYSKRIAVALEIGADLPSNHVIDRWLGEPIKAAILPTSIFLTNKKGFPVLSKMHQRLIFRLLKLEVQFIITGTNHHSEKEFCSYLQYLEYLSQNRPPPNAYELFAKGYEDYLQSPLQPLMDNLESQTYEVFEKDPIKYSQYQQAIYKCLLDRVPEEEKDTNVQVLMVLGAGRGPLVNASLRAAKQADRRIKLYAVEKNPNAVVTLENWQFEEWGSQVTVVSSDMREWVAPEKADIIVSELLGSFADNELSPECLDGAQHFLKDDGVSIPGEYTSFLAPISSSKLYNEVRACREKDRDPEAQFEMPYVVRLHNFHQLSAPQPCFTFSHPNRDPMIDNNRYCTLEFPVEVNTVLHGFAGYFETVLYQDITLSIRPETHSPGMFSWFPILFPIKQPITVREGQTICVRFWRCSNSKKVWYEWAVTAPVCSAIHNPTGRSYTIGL
T1 sequence (Q9BQA1 whole entry partner): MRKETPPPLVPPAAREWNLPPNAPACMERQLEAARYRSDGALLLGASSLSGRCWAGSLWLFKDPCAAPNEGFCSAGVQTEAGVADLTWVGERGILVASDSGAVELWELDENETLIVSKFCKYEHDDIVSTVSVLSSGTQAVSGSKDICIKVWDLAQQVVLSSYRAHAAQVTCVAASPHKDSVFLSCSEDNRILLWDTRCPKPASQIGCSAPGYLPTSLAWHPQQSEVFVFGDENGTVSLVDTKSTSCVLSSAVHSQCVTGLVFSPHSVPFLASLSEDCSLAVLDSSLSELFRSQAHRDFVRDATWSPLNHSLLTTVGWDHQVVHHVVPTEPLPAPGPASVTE

Row | IC50 (PRMT5 [1]) [nM] | IC50 (PRMT5 [2]) [nM] | IC50 (PRMT5 [3]) [nM] | IC50 [4] [nM] | IC50 [5] [nM] | Structure (SMILES) | MTAP intact/deleted ratio [5] | IC50 [6] [nM]
1 | 50 to 500 | < 50 | < 50 | > 1000 | 100 to 1000 | C[C@H]1CC[C@H](c2ccc3[nH]c(=O)ccc3c2)N(C(=O)C(=O)Nc2cncc(C(N)=O)c2)C1 (single isomer, unassigned) [Compound 809] | A (an IC50 ratio greater than or equal to 10 fold) | 1000 to 10000
2 | > 500 | > 500 | > 500 | > 1000 | > 1000 | COc1ncc(NC(=O)C(=O)N2C[C@H](C)CC[C@H]2c2ccc3[nH]c(=O)ccc3c2)cc1C(N)=O (single isomer, unassigned) [Compound 810] | B (an IC50 ratio greater than or equal to 3 fold but lower than 10 fold) | > 10000
3 | > 500 | > 500 | > 500 | > 1000 | 100 to 1000 | CCc1cc(NC(=O)C(=O)N2C[C@H](C)CC[C@H]2c2ccc3[nH]c(=O)ccc3c2)cnc1N (single isomer, unassigned) [Compound 819] | A (an IC50 ratio greater than or equal to 10 fold) | 1000 to 10000
4 | 50 to 500 | < 50 | < 50 | 100 to 1000 | < 100 | CCc1cc(NC(=O)C(=O)N2C[C@@H](C)CC[C@@H]2c2ccc3[nH]c(=O)ccc3c2)cnc1N (single isomer, unassigned) [Compound 825] | A (an IC50 ratio greater than or equal to 10 fold) | < 1000
5 | > 500 | > 500 | 50 to 500 | > 1000 | 100 to 1000 | CCc1cc(NC(=O)C(=O)N2C[C@@H](C)CC[C@@H]2c2ccc(-c3cncs3)cc2)cnc1N (single isomer, unassigned) [Compound 827, N-(6-amino-5-ethylpyridin-3-yl)-2-(5-methyl-2-(4-(thiazol-5-yl)phenyl)piperidin-1-yl)-2-oxoacetamide] | A (an IC50 ratio greater than or equal to 10 fold) | > 10000

The remaining lines, values behind:

Row | Structure (SMILES) | IC50 (PRMT5 [1]) [nM] | IC50 (PRMT5 [2]) [nM] | IC50 (PRMT5 [3]) [nM] | IC50 [4] [nM] | IC50 [5] [nM] | MTAP intact/deleted ratio [5] | IC50 [6] [nM]
6 | COc1ncc(NC(=O)C(=O)N2C[C@@H](C)CC[C@@H]2c2ccc(-c3nccs3)cc2)cc1C(N)=O (single isomer, unassigned) [Compound 811] | 50 to 500 | 50 to 500 | < 50 | > 1000 | 100 to 1000 | A (an IC50 ratio greater than or equal to 10 fold) | 1000 to 10000
7 | CCc1cc(NC(=O)C(=O)N2C[C@H](C)CC[C@H]2c2ccc(-c3nccs3)cc2)cnc1N (single isomer, unassigned) [Compound 813] | 50 to 500 | 50 to 500 | < 50 | > 1000 | 100 to 1000 | A (an IC50 ratio greater than or equal to 10 fold) | < 1000
8 | Cc1cc(NC(=O)C(=O)N2C[C@H](C)CC[C@H]2c2ccc(-c3nccs3)cc2)cnc1N (single isomer, unassigned) [Compound 816] | > 500 | > 500 | > 500 | > 1000 | > 1000 | C (an IC50 ratio of less than 3 fold) | > 10000
9 | C[C@@H]1CC[C@@H](c2ccc(-c3cncs3)cc2)N(C(=O)C(=O)Nc2cncc(C(N)=O)c2)C1 (single isomer, unassigned) [Compound 817, 5-(2-(5-methyl-2-(4-(thiazol-5-yl)phenyl)piperidin-1-yl)-2-oxoacetamido)nicotinamide] | > 500 | > 500 | > 500 | > 1000 | > 1000 | C (an IC50 ratio of less than 3 fold) | > 10000
10 | Cc1cc(NC(=O)C(=O)N2C[C@@H](C)CC[C@@H]2c2ccc(-c3nccs3)cc2)cnc1N (single isomer, unassigned) [Compound 820] | 50 to 500 | 50 to 500 | < 50 | 100 to 1000 | < 100 | B (an IC50 ratio greater than or equal to 3 fold but lower than 10 fold) | < 1000
11 | C[C@H]1CC[C@H](c2ccc(-c3cncs3)cc2)N(C(=O)C(=O)Nc2cncc(C(N)=O)c2)C1 (single isomer, unassigned) [Compound 821, 5-(2-(5-methyl-2-(4-(thiazol-5-yl)phenyl)piperidin-1-yl)-2-oxoacetamido)nicotinamide] | 50 to 500 | 50 to 500 | < 50 | > 1000 | < 100 | A (an IC50 ratio greater than or equal to 10 fold) | 1000 to 10000
12 | CCc1cc(NC(=O)C(=O)N2C[C@@H](C)CC[C@@H]2c2ccc(-c3nccs3)cc2)cnc1N (single isomer, unassigned) [Compound 822] | > 500 | > 500 | > 500 | > 1000 | > 1000 | C (an IC50 ratio of less than 3 fold) | > 10000
13 | Cc1cc(NC(=O)C(=O)N2C[C@H](C)CC[C@H]2c2ccc(C(N)=O)s2)cnc1N (single isomer, unassigned) [Compound 823] | > 500 | > 500 | > 500 | > 1000 | > 1000 | C (an IC50 ratio of less than 3 fold) | > 10000
14 | Cc1cc(NC(=O)C(=O)N2C[C@@H](C)CC[C@@H]2c2cc3[nH]ncc3s2)cnc1N (single isomer, unassigned) [Compound 824] | 50 to 500 | < 50 | < 50 | 100 to 1000 | < 100 | A (an IC50 ratio greater than or equal to 10 fold) | < 1000
15 | Cc1cc(NC(=O)C(=O)N2C[C@H](C)CC[C@H]2c2cc3[nH]ncc3s2)cnc1N (single isomer, unassigned) [Compound 826] | > 500 | > 500 | 50 to 500 | > 1000 | > 1000 | B (an IC50 ratio greater than or equal to 3 fold but lower than 10 fold) | > 10000
16 | CNC(=O)c1ccc([C@@H]2CC[C@@H](C)CN2C(=O)C(=O)Nc2cncc(C(N)=O)c2)s1 (single isomer, unassigned) [Compound 829] | 50 to 500 | < 50 | < 50 | > 1000 | < 100 | A (an IC50 ratio greater than or equal to 10 fold) | 1000 to 10000
17 | COc1ncc(NC(=O)C(=O)N2C[C@H](C)CC[C@H]2c2ccc(-c3cncs3)cc2)cc1C(N)=O (single isomer, unassigned) [Compound 830, 2-methoxy-5-(2-(5-methyl-2-(4-(thiazol-5-yl)phenyl)piperidin-1-yl)-2-oxoacetamido)nicotinamide] | 50 to 500 | 50 to 500 | < 50 | > 1000 | < 100 | A (an IC50 ratio greater than or equal to 10 fold) | < 1000

— patent US11999727B2 (Tango Therapeutics, Inc., priority 2020, dated 2024)
